Data reported in ChEMBL document CHEMBL1127908, “A congener study of zileuton reveals interesting effects on glucuronidation rates” (Bioorg Med Chem Lett, 1994).

How the values were obtained:
[1] = species on record: Homo sapiens; assay: Concentration required for the inhibition of LTB4 production in human whole blood; format: functional, organism-based
[2] = species on record: Homo sapiens; assay: Tested for its rate of glucuronidation in 0.5-2.5 mg/mL of human microsomal protein; format: functional
[3] = species on record: Homo sapiens; assay: Tested for its rate of glucuronidation in 0.5-2.5 mg/mL of human microsomal protein; Not detected; format: functional
[4] = species on record: Homo sapiens; assay: Tested for its rate of glucuronidation in 0.5-2.5 mg/mL of human microsomal protein; not detected; format: functional

SMILES	IC50 [1] [nM]	Glucuronidation rate (nM min-1 mg-1) [2]	also measured
CC(c1cc2ccncc2s1)N(O)C(N)=O (single isomer, unassigned; (+)) [listing 1 of 2 here]	1500	–	–
CC(c1cc2ncccc2s1)N(O)C(N)=O (single isomer, unassigned; (+)) [listing 1 of 2 here]	3120	–	–
CC(c1cc2ccncc2s1)N(O)C(N)=O (single isomer, unassigned; (+)) [listing 2 of 2 here]	–	0.053	–
CC(c1cc2ncccc2s1)N(O)C(N)=O (single isomer, unassigned; (+)) [listing 2 of 2 here]	–	0.006	–
CC(c1cc2cccnc2o1)N(O)C(N)=O (single isomer, unassigned; (-)) [listing 1 of 2 here]	11300	–	–
CC(c1cc2cccnc2s1)N(O)C(N)=O (single isomer, unassigned; (-)) [listing 1 of 2 here]	3700	–	–
CC(c1cc2ccccc2s1)N(O)C(N)=O (single isomer, unassigned; (-))	–	0.155	–
CC(c1cc2cccnc2o1)N(O)C(N)=O (single isomer, unassigned; (-)) [listing 2 of 2 here]	–	–	Glucuronidation rate [3]: Not detected
CC(c1cc2cccnc2s1)N(O)C(N)=O (single isomer, unassigned; (-)) [listing 2 of 2 here]	–	0.058	–
CC(c1cc2ccccc2s1)N(O)C(N)=O (single isomer, unassigned; (-)) [ZILEUTON]	1880	–	–
CC(c1cc2ccccc2s1)N(O)C(N)=O (stereo in doubt; (+)-1b)	–	0.025	–
CC(c1cc2ccccc2s1)N(O)C(N)=O (stereo in doubt; (+)-1b) [ZILEUTON]	640	–	–
CC(c1cc2cccnc2s1)N(O)C(N)=O (stereo in doubt; (+)-2b) [listing 1 of 2 here]	950	–	–
CC(c1cc2cccnc2s1)N(O)C(N)=O (stereo in doubt; (+)-2b) [listing 2 of 2 here]	–	0.012	–
CC(c1cc2cccnc2o1)N(O)C(N)=O (stereo in doubt; (+)-5b) [listing 1 of 2 here]	2780	–	–
CC(c1cc2cccnc2o1)N(O)C(N)=O (stereo in doubt; (+)-5b) [listing 2 of 2 here]	–	–	Glucuronidation rate [4]: Not detected
CC(c1cc2ccncc2s1)N(O)C(N)=O (stereo in doubt; (-)-3a) [listing 1 of 2 here]	–	–	IC50 ([1]; Homo sapiens, Blood): 2000 nM
CC(c1cc2ccncc2s1)N(O)C(N)=O (stereo in doubt; (-)-3a) [listing 2 of 2 here]	–	0.241	–
CC(c1cc2ncccc2s1)N(O)C(N)=O (stereo in doubt; (-)-4a) [listing 1 of 2 here]	6620	–	–
CC(c1cc2ncccc2s1)N(O)C(N)=O (stereo in doubt; (-)-4a) [listing 2 of 2 here]	–	0.037	–
